Assay results taken from US5830855A, “Lipodepsipeptides as antifungal and fungicidal agents” (priority 1996, dated 1998).
Converted amounts (≈) assume the structure as drawn. Numbered stars: 1 amine (or outer) side, 2 acyl side, 3 side chain; on linkers, the order of the positions; unused ones are H or OH. Bridge positions count the residues as written; N and C are the ends. Square brackets hold non-standard residues; d marks the D form. Peptide text beside a SMILES is read from it. * marks the point of attachment. ξ: configuration not given here. Asp(3S-OH) = N[C@H](C(=O)O)[C@H](O)C(=O)O; Thr(4-Cl) = N[C@H](C(=O)O)[C@H](O)CCl; ξAsp(3ξ-OH) = NC(C(=O)O)C(O)C(=O)O; X3 = O=C(C(N[*:1])C(O)CCl)[*:2]; X1 = CCCCCCCCC[C@@H](O)CC(=O)*; X2 = CCCCCCCCCCCC(O)CC(=O)*; dDab = NCC[C@@H](N)C(=O)O; Dab = NCC[CH](N)C(=O)O; Orn = NCCC[CH](N)C(=O)O; hSer = N[CH](CCO)C(=O)O; Dhb = C/C=C(\N)C(=O)O

Tests used:
Assay type in all cases: cell-based
[1] = system: Cryptococcus neoformans; experiment: Minimum Fungicidal Concentration (MFC); details: Table 2, 14 isolates, 48 hr
Procedure: (§1) Medium: Liquid RPMI 1640 (RPMI) medium with L-glutamine and without sodium bicarbonate (Sigma Chemical Co., R-6504; St. Louis, Mo.) buffered with 0.165M MOPS (34.54 g/liter) was used for in vitro antifungal tests. The medium was adjusted to pH 7.0 with 10M NaOH and filter sterilized.
(§2) Lipodepsipeptide Dilutions: All stock drug solution concentrations were at least 10-fold higher than the highest concentration tested. AmB, ketoconazole, and the test compounds (SR-E, ST-B, and SS-A) were dissolved in sterile distilled water, 0.2N HCl, and 0.001N HCl, respectively. Each stock solution was diluted to 2× the highest concentration of drug tested with RPMI. Two-fold dilutions were made with RPMI medium.
(§3) Preparation of Inoculum Suspensions: On Sabouraud dextose agar (SDA; BBL, Becton and Dickinson and Co., Cockeysville, Md.) all isolates were subcultured at least twice before use to ensure purity and viability. Candida spp. and Saccharomyces cerevisiae were grown for 24 hr at 35° C. Isolates of Cryptococcus neoformans were grown for 48 hr at 35° C. Yeast cells from at least five 1-mm-diameter colonies were suspended in 5 ml of sterile 0.85% saline. The resulting suspension was vortexed for 15 sec. The turbidity of each mixed suspension was measured at 530 nm and adjusted to 1×10^6 to 5×10^6 CFU/ml by the NCCLS spectrophotometric method described by National Committee for Clinical Laboratory Standards. 1992. Reference method for broth dilution antifungal susceptibility testing of yeasts; proposed standard, NCCLS document M27-P (ISBN 1-56238-186-5). NCCLS, Villanova. The final transmission of each yeast suspension ranged from 85-87%.
(§4) Aspergillus fumigatus and Mucor spp. were grown for 1 wk at 35° C. The dermatophytes, Microsporum spp. and Trichophyton spp., were grown for two wk at 30° C. Fungal spores were washed from the plates of all good spore formers (A. fumigatus, Mucor spp., Microsporum canis and Trichophyton spp.) by placing 5 ml of 0.85% saline with 0.2% Tween 80 on the plates and mixing with an inoculating loop. The spore/mycelium suspension was drawn off with a pipette and allowed to settle for at least 5 min. For the poor spore-forming Microsporum audouinii, the procedure was the same except the spore/mycelial suspension was homogenized with a ground glass tissue homogenizer and then allowed to settle for at least 5 min. A small amount of the supernatant was transferred to 5 ml of sterile saline and vortexed. The stock suspensions of all filamentous fungi were measured at 530 nm and adjusted to 85-87% transmission. The concentration (1×10^6 to 5×10^6 CFU/ml) was determined by hemacytometer count or plate count on SDA. All stock suspensions were diluted 1000-fold with RPMI, or 2× the final desired test inocula. The 2× inoculum was diluted 1:1 when the wells were inoculated, and the desired inoculum size was achieved.
(§5) Broth Microdilution Test: Broth microdilution tests were performed using sterile, disposable, multiwell microdilution plates (96 round U-bottom wells) (Falcon 3077; Becton and Dickinson Labware, Lincoln Park, N.J.). The drugs (2× concentrations) were dispensed into the wells of rows number 1 to 10 of the microdilution plates in 100 μl volumes from highest drug concentration to lowest drug concentration. Each well was inoculated with 100 μl of the corresponding 2× concentrated fungal suspension. The wells of row 11 contained the inoculum with drug-free media as a positive growth control and the wells of row 12 contained uninoculated-drug-free medium as a sterility control.
(§6) Incubation and Scoring of MIC: All cultures were incubated without shaking at the temperature used during subculture. Incubation times were 48 hr for Candida spp., S. cerevisiae, A. fumigatus, and Mucor spp; 72 hr for C. neoformans; and 7 days for Microsporum and Trichophyton spp. […]

[2] = system: Candida albicans; experiment: Minimum Fungicidal Concentration (MFC); details: Table 2, 20 isolates, subculture on drug-free SDA 24 hr
Procedure: as §1, §2, §3, §4, §5, §6

[3] = system: Microsporum spp.; experiment: Minimum Fungicidal Concentration (MFC); details: Table 2, 2 isolates, 7 d
Procedure: as §1, §2, §3, §4, §5, §6

[4] = system: Candida lusitaniae; experiment: Minimum Fungicidal Concentration (MFC); details: Table 2, 2 isolates, 24 hr
Procedure: as §1, §2, §3, §4, §5, §6

[5] = system: Candida parapsilosis; experiment: Minimum Fungicidal Concentration (MFC); details: Table 2, 2 isolates, 24 hr
Procedure: as §1, §2, §3, §4, §5, §6

[6] = system: Candida tropicalis; experiment: Minimum Fungicidal Concentration (MFC); details: Table 2, 2 isolates, 24 hr
Procedure: as §1, §2, §3, §4, §5, §6

[7] = system: Candida krusei; experiment: Minimum Fungicidal Concentration (MFC); details: Table 2, 2 isolates, 24 hr
Procedure: as §1, §2, §3, §4, §5, §6

[8] = system: Candida kefyr; experiment: Minimum Fungicidal Concentration (MFC); details: Table 2, 1 isolate, 24 hr
Procedure: as §1, §2, §3, §4, §5, §6

[9] = system: Candida rugosa; experiment: Minimum Fungicidal Concentration (MFC); details: Table 2, 2 isolates, 24 hr
Procedure: as §1, §2, §3, §4, §5, §6

[10] = system: Trichophyton spp.; experiment: Minimum Fungicidal Concentration (MFC); details: Table 2, 3 isolates, 7 d
Procedure: as §1, §2, §3, §4, §5, §6

[11] = system: Saccharomyces cerevisiae; experiment: Minimum Fungicidal Concentration (MFC); details: Table 2, 1 strain tested more than once, 24 hr
Procedure: as §1, §2, §3, §4, §5, §6

[12] = system: Cryptococcus neoformans; experiment: Broth microdilution MIC; details: for MIC range: Table 1 (MICs), Cryptococcus neoformans, 14 isolates, 72 hr
Procedure: as §1, §2, §3, §4, §5, §6

[13] = system: Candida albicans; experiment: Broth microdilution MIC; details: Table 1 (MICs); Candida albicans, 20 isolates; RPMI pH 7.0, 48 hr; Ktz read at score 2, others at score 0
Procedure: as §1, §2, §3, §4, §5, §6

[14] = system: Microsporum spp.; experiment: Broth microdilution MIC; details: Table 1 (MICs), 2 isolates, 7 days
Procedure: as §1, §2, §3, §4, §5, §6

[15] = system: Candida lusitaniae; experiment: Broth microdilution MIC; details: Table 1 (MICs), 2 isolates, 48 hr
Procedure: as §1, §2, §3, §4, §5, §6

[16] = system: Candida parapsilosis; experiment: Broth microdilution MIC; details: Table 1 (MICs), 2 isolates, 48 hr
Procedure: as §1, §2, §3, §4, §5, §6

[17] = system: Candida tropicalis; experiment: Broth microdilution MIC; details: Table 1 (MICs); Candida tropicalis, 2 isolates; 48 hr
Procedure: as §1, §2, §3, §4, §5, §6

[18] = system: Aspergillus fumigatus; experiment: Broth microdilution MIC; details: Table 1 (MICs), 16 isolates, 48 hr
Procedure: as §1, §2, §3, §4, §5, §6

[19] = system: Candida krusei; experiment: Broth microdilution MIC; details: Table 1 (MICs), 2 isolates, 48 hr
Procedure: as §1, §2, §3, §4, §5, §6

[20] = system: Candida kefyr; experiment: Broth microdilution MIC; details: Table 1 (MICs), 1 isolate, 48 hr
Procedure: as §1, §2, §3, §4, §5, §6

[21] = system: Candida rugosa; experiment: Broth microdilution MIC; details: Table 1 (MICs); Candida rugosa, 2 isolates; 48 hr
Procedure: as §1, §2, §3, §4, §5, §6

[22] = system: Trichophyton spp.; experiment: Broth microdilution MIC; details: Table 1 (MICs), 3 isolates, 7 days
Procedure: as §1, §2, §3, §4, §5, §6

[23] = system: Saccharomyces cerevisiae; experiment: Broth microdilution MIC; details: Table 1 (MICs), 1 strain tested more than once (control ATCC 36375), 48 hr
Procedure: as §1, §2, §3, §4, §5, §6

Row | Structure (SMILES) | MFC (μg/ml) range [1] | MFC (μg/ml) range [2] | MFC (μg/ml) range [3] | MFC (μg/ml) range [4] | MFC (μg/ml) range [5] | MFC (μg/ml) range [6] | MFC (μg/ml) range [7] | MFC (μg/ml) range [8] | MFC (μg/ml) range [9] | MFC (μg/ml) range [10] | MFC (μg/ml) range [11] | MIC range [12] | MIC range [13] | MIC range [14] | MIC range [15] | MIC range [16] | MIC (μg/ml) range [17] | MIC range [18] | MIC (μg/ml) range [19] | MIC (μg/ml) range [20] | other results
1 | C/C=C1\NC(=O)[C@H](Cc2ccccc2)NC(=O)[C@H](CCCN=C(N)N)NC(=O)[C@@H](CCN)NC(=O)[C@H](CCN)NC(=O)[C@@H](CO)NC(=O)[C@@H](NC(=O)C[C@H](O)CCCCCCCCC)COC(=O)[C@H]([C@H](O)CCl)NC(=O)[C@H]([C@H](O)C(=O)O)NC1=O [SR-E, Syringomycin-E] (X1-S[dS][Dab][dDab]RF[Dhb][Asp(3S-OH)][Thr(4-Cl)]; ester 1-C) | 2.5 to 10 µg/mL | 2.5 to 5 µg/mL | 6.25 to 12.5 µg/mL | 2.5 to 5 µg/mL | 2.5 µg/mL (≈ 2.04 µM) | 5 µg/mL (≈ 4.08 µM) | 10 µg/mL (≈ 8.16 µM) | 2.5 µg/mL (≈ 2.04 µM) | 10 to 20 µg/mL | 6.25 to 25 µg/mL | 2.5 µg/mL (≈ 2.04 µM) | 2.5 to 10 µg/mL | 2.5 to 5 µg/mL | 6.25 to 12.5 µg/mL | 2.5 µg/mL (≈ 2.04 µM) | 2.5 µg/mL (≈ 2.04 µM) | 2.5 to 5 µg/mL | 10 to 20 µg/mL | 10 µg/mL (≈ 8.16 µM) | 2.5 µg/mL (≈ 2.04 µM) | MIC range [21]: 5 to 20 µg/mL; MIC range [22]: 3.1 to 6.25 µg/mL; MFC (μg/ml) range [23]: 2.5 µg/mL (≈ 2.04 µM)
2 | C/C=C1\NC(=O)C(C(C)O)NC(=O)C(CCCN)NC(=O)C(CCO)NC(=O)CNC(=O)C(CCN)NC(=O)C(NC(=O)CC(O)CCCCCCCCCCC)COC(=O)C(C(O)CCl)NC(=O)C(C(O)C(=O)O)NC1=O (centres unmarked) [ST-B, Syringotoxin B] (X2-S[Dab]G[hSer][Orn]T[Dhb][ξAsp(3ξ-OH)][X3]; ester 1-C; configuration not given here) | 0.8 to 12.5 µg/mL | 3.2 to 12.5 µg/mL | 25 to 200 µg/mL | 6.25 to 12.5 µg/mL | 12.5 to 25 µg/mL | 12.5 µg/mL (≈ 11 µM) | 12.5 to 50 µg/mL | 3.2 µg/mL (≈ 2.82 µM) | 6.25 to 50 µg/mL | 25 to 200 µg/mL | 12.5 to 25 µg/mL | 0.8 to 6.25 µg/mL | 3.2 to 12.5 µg/mL | 25 to 200 µg/mL | 6.25 µg/mL (≈ 5.5 µM) | 6.25 to 12.5 µg/mL | 3.2 µg/mL (≈ 2.82 µM) | 6.25 to 25 µg/mL | 12.5 to 25 µg/mL | 3.2 µg/mL (≈ 2.82 µM) | MIC, one strain of C. neoformans ([12]; one strain of C. neoformans, very sensitive to ST-B, somewhat resistant to AmB): 0.8 µg/mL; MIC range [21]: 3.2 to 25 µg/mL; MIC range [22]: 25 to 200 µg/mL; MFC (μg/ml) range [23]: 6.25 µg/mL (≈ 5.5 µM)
